Reference: US11426397B2, “Piperidinyl- and piperazinyl-substituted heteroaromatic carboxamides as modulators of GPR6” (TAKEDA PHARMACEUTICAL COMPANY LIMITED, priority 2017, dated 2022)

Molecular target: T1, GPR6 receptor expressed in CHO-K1 cells (Homo sapiens, UniProt P46095)
T1 construct: expressed in transfected cells
Assay: In vitro inhibition of cAMP (EC50), cell-based HTRF cAMP assay
Details: inhibition of constitutive cAMP activity of GPR6 in CHO-K1 cells
In short: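 Tetracycline-inducible CHO-K1 line, GPR6 expression induced 20 h with 2 μg/mL doxycycline. Compounds incubated 45 min at 37 °C in Ringer's buffer (pH 7.4) with 0.5% fatty acid free BSA and 300 μM IBMX. Constitutive cAMP read by Lance HTRF; EC50 from four-parameter logistic fit.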

T1 sequence (P46095 whole entry): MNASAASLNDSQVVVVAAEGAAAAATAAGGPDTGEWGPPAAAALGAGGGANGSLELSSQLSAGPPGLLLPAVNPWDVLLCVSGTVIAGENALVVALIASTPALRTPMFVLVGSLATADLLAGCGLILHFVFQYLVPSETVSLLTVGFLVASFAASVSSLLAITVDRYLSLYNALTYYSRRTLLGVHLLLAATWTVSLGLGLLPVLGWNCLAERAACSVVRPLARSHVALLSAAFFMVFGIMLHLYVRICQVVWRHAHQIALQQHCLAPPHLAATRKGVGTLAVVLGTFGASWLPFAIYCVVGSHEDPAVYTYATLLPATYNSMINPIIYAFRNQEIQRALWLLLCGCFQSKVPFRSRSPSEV

| SMILES | pEC50, in vitro inhibition of cAMP | EC50 (read-out: pEC50, in vitro inhibition of cAMP (converted)) [µM] |
| --- | --- | --- |
| CCn1nc(C(=O)Nc2cc(C#N)ccc2N2CCC(Oc3ccc(F)cc3F)CC2)cc1C [Example 143, N-(5-cyano-2-(4-(2,4-difluorophenoxy)piperidin-1-yl)phenyl)-1-ethyl-5-methyl-1H-pyrazole-3-carboxamide] | 6.8 |  |
| Cn1cnc(C(=O)Nc2cc(C#N)ccc2N2CCC(Oc3ccc(F)cc3F)CC2)c1 [Example 45, N-(5-cyano-2-(4-(2,4-difluorophenoxy)piperidin-1-yl)phenyl)-1-methyl-1H-imidazole-4-carboxamide] | 6.6 |  |
| COc1ncccc1C(=O)Nc1cc(C#N)ccc1N1CCC(C(=O)c2ccccc2)CC1 [Example 70, N-(2-(4-benzoylpiperidin-1-yl)-5-cyanophenyl)-2-methoxynicotinamide] | 6.4 |  |
| COc1cc(N2CCC(Oc3ccc(F)cc3F)CC2)c(NC(=O)c2cnccc2OC)cn1 [Example 21, N-(4-(4-(2,4-difluorophenoxy)piperidin-1-yl)-6-methoxypyridin-3-yl)-4-methoxynicotinamide] | 7.4 |  |
| Cn1cccc(C(=O)Nc2cc(C#N)ccc2N2CCC(Oc3ccc(F)c(F)c3)CC2)c1=O [Example 16] | 6.6 |  |
| CS(=O)(=O)c1ccc(N2CCC(Oc3ccc(F)cc3F)CC2)c(NC(=O)c2cnn3c2OCCCC3)c1 [Example 38, N-(2-(4-(2,4-difluorophenoxy)piperidin-1-yl)-5-(methylsulfonyl)phenyl)-5,6,7,8-tetrahydropyrazolo[5,1-b][1,3]oxazepine-3-carboxamide] | 6.8 |  |
| COc1ncccc1C(=O)Nc1cc(S(C)(=O)=O)ccc1N1CCN(C(=O)c2ccc(F)cc2C)CC1 [Example 95, N-(2-(4-(4-fluoro-2-methylbenzoyl)piperazin-1-yl)-5-(methylsulfonyl)phenyl)-2-methoxynicotinamide] | 6.2 |  |
| COc1nn(C)cc1C(=O)Nc1cc(C#N)cnc1N1CCC(Oc2ccc(F)cc2F)CC1 [Example 60, N-(5-cyano-2-(4-(2,4-difluorophenoxy)piperidin-1-yl)pyridin-3-yl)-3-methoxy-1-methyl-1H-pyrazole-4-carboxamide] | 7.3 |  |
| O=C(Nc1ccc2nccnc2c1N1CCC(Oc2ccc(F)cc2F)CC1)c1ccccn1 [Example 150, N-(5-(4-(2,4-difluorophenoxy)piperidin-1-yl)quinoxalin-6-yl)picolinamide] | <5.7 |  |
| N#Cc1ccc(N2CCC(Oc3ccc(F)cc3F)CC2)c(NC(=O)c2cscn2)c1 [Example 112, N-(5-cyano-2-(4-(2,4-difluorophenoxy)piperidin-1-yl)phenyl)thiazole-4-carboxamide] | 6.4 |  |
| CCOc1c(C(=O)Nc2cc(C#N)cnc2N2CCC(Oc3ccc(F)cc3F)CC2)cnn1C [Example 121, N-(5-cyano-2-(4-(2,4-difluorophenoxy)piperidin-1-yl)pyridin-3-yl)-5-ethoxy-1-methyl-1H-pyrazole-4-carboxamide] | 6.7 |  |
| COc1nn(C)cc1C(=O)Nc1cc(C#N)cnc1N1CCN(Cc2ccccc2OC(F)(F)F)CC1 [Example 167, N-(5-cyano-2-(4-(2-(trifluoromethoxy)benzyl)piperazin-1-yl)pyridin-3-yl)-3-methoxy-1-methyl-1H-pyrazole-4-carboxamide] | 6.5 |  |
| COc1cnccc1C(=O)Nc1cc(C#N)ccc1N1CCC(Oc2ccc(F)cc2F)CC1 [Example 25, N-(5-cyano-2-(4-(2,4-difluorophenoxy)piperidin-1-yl)phenyl)-3-methoxyisonicotinamide] | 7.0 |  |
| COc1ccc(CC2CCN(c3ccc(C#N)cc3NC(=O)c3cccn(C)c3=O)CC2)c(F)c1 [Example 90, N-(5-cyano-2-(4-(2-fluoro-4-methoxybenzyl)piperidin-1-yl)phenyl)-1-methyl-2-oxo-1,2-dihydropyridine-3-carboxamide] | 7.2 |  |
| Cc1ccc(NC(=O)c2cnn(C)c2O)c(N2CCN(Cc3ccc(F)cc3)CC2)n1 [Example 104] | <5.7 |  |
| Cn1cccc(C(=O)Nc2cc(C#N)ccc2N2CCC(Oc3ccccc3F)CC2)c1=O [Example 8] | 6.9 |  |
| Cc1ccc(C(=O)Nc2cc(C#N)ccc2N2CCC(Oc3ccc(F)cc3F)CC2)nc1 [Example 124, N-(5-cyano-2-(4-(2,4-difluorophenoxy)piperidin-1-yl)phenyl)-5-methylpicolinamide] | 6.9 |  |
| Cc1cnc(C(=O)Nc2cc(C#N)ccc2N2CCC(Oc3ccc(F)cc3F)CC2)cn1 [Example 123, N-(5-cyano-2-(4-(2,4-difluorophenoxy)piperidin-1-yl)phenyl)-5-methylpyrazine-2-carboxamide] | 6.5 |  |
| N#Cc1ccc(N2CCC(Oc3ccc(F)cc3F)CC2)c(NC(=O)c2cccn(C3CCCCC3)c2=O)c1 [Example 180, N-(5-cyano-2-(4-(2,4-difluorophenoxy)piperidin-1-yl)phenyl)-1-cyclohexyl-2-oxo-1,2-dihydropyridine-3-carboxamide] | 5.8 |  |
| CCn1c(C)cc(C)c(C(=O)Nc2cc(C#N)ccc2N2CCC(Oc3ccc(F)cc3F)CC2)c1=O [Example 202] | 6.3 |  |
| COc1cc(N(C)C)ccc1C(=O)Nc1cc(C#N)ccc1N1CCC(Oc2ccc(F)cc2F)CC1 [Example 188, N-(5-cyano-2-(4-(2,4-difluorophenoxy)piperidin-1-yl)phenyl)-4-(dimethylamino)-2-methoxybenzamide] | 6.4 |  |
| N#Cc1cnc(N2CCC(Cc3ccccc3)CC2)c(NC(=O)c2ccccn2)c1 [Example 67, N-(2-(4-benzylpiperidin-1-yl)-5-cyanopyridin-3-yl)picolinamide] |  | 0.1 |
| COc1ncccc1C(=O)Nc1cc(S(C)(=O)=O)ccc1N1CCC(Oc2ccc(F)cc2F)CC1 [Example 5, N-(2-(4-(2,4-difluorophenoxy)piperidin-1-yl)-5-(methylsulfonyl)phenyl)-2-methoxynicotinamide] | 7.4 |  |
| Cc1ccc(NC(=O)c2cc(F)cnc2O)c(N2CCN(Cc3ccc(F)cc3)CC2)n1 [Example 101, 5-fluoro-N-(2-(4-(4-fluorobenzyl)piperazin-1-yl)-6-methylpyridin-3-yl)-2-hydroxynicotinamide] | 5.9 |  |

Other lines, results leading:

| pEC50, in vitro inhibition of cAMP | EC50 (read-out: pEC50, in vitro inhibition of cAMP (converted)) [µM] | SMILES |
| --- | --- | --- |
| 7.2 |  | COc1cc(Cl)ccc1C(=O)Nc1cc(C#N)ccc1N1CCC(Oc2ccc(F)cc2F)CC1 [Example 228, 4-chloro-N-(5-cyano-2-(4-(2,4-difluorophenoxy)piperidin-1-yl)phenyl)-2-methoxybenzamide] |
| 6.9 |  | COc1ccc(C(F)(F)F)cc1C(=O)Nc1cc(C#N)ccc1N1CCC(Oc2ccc(F)cc2F)CC1 [Example 208, N-(5-cyano-2-(4-(2,4-difluorophenoxy)piperidin-1-yl)phenyl)-2-methoxy-5-(trifluoromethyl)benzamide] |
| 6.4 |  | COc1c(C(=O)Nc2cc(C#N)ccc2N2CCC(Oc3ccc(F)cc3F)CC2)ccc(F)c1F [Example 233, N-(5-cyano-2-(4-(2,4-difluorophenoxy)piperidin-1-yl)phenyl)-3,4-difluoro-2-methoxybenzamide] |
| 7.3 |  | COc1ccncc1C(=O)Nc1cc(C(=O)N(C)C)ncc1N1CCC(Oc2ccc(F)cc2F)CC1 [Example 262, 5-(4-(2,4-difluorophenoxy)piperidin-1-yl)-4-(4-methoxynicotinamido)-N,N-dimethylpicolinamide] |
| 7.0 |  | COc1ncccc1C(=O)Nc1cc(C#N)ccc1N1CCN(Cc2ccccc2C#N)CC1 [Example 245, N-(5-cyano-2-(4-(2-cyanobenzyl)piperazin-1-yl)phenyl)-2-methoxynicotinamide] |
| 6.9 |  | COc1ncccc1C(=O)Nc1cnc(C(F)(F)F)cc1N1CCC(Oc2ccc(F)cc2F)CC1 [Example 289] |
| 6.3 |  | COc1cn(-c2ccccc2)nc1C(=O)Nc1cc(C#N)ccc1N1CCC(Oc2ccc(F)cc2F)CC1 [Example 219, N-(5-cyano-2-(4-(2,4-difluorophenoxy)piperidin-1-yl)phenyl)-4-methoxy-1-phenyl-1H-pyrazole-3-carboxamide] |
| 6.5 |  | COc1ncccc1C(=O)Nc1cc(C#N)ccc1N1CCN(Cc2cccc(F)c2F)CC1 [Example 243, N-(5-cyano-2-(4-(2,3-difluorobenzyl)piperazin-1-yl)phenyl)-2-methoxynicotinamide] |
| 7.0 |  | N#Cc1ccc(N2CCC(Oc3ccc(F)cc3F)CC2)c(NC(=O)c2ccc[nH]c2=O)c1 [Example 274] |
| 6.5 |  | N#Cc1ccc(N2CCC(Oc3ccc(F)cc3F)CC2)c(NC(=O)c2ccccc2O)c1 [Example 275, N-(5-cyano-2-(4-(2,4-difluorophenoxy)piperidin-1-yl)phenyl)-2-hydroxybenzamide] |
| 7.0 |  | Cn1cccc(C(=O)Nc2ccccc2N2CCC(Oc3ccc(F)cc3F)CC2)c1=O [Example 257, N-(2-(4-(2,4-difluorophenoxy)piperidin-1-yl)phenyl)-1-methyl-2-oxo-1,2-dihydropyridine-3-carboxamide] |
| <4.5 |  | COc1c(C(=O)Nc2cc(C#N)ccc2N2CCC(Oc3ccc(F)cc3F)CC2)nnn1Cc1ccccc1Cl [Example 221, 1-(2-chlorobenzyl)-N-(5-cyano-2-(4-(2,4-difluorophenoxy)piperidin-1-yl)phenyl)-5-methoxy-1H-1,2,3-triazole-4-carboxamide] |
| 6.6 |  | Cn1cccc(C(=O)Nc2cc(C#N)ccc2N2CCC(Oc3ncc(F)cc3F)CC2)c1=O [Example 293, N-(5-cyano-2-(4-((3,5-difluoropyridin-2-yl)oxy)piperidin-1-yl)phenyl)-1-methyl-2-oxo-1,2-dihydropyridine-3-carboxamide] |
